Data reported in patent US6391902B1, “Substituted benzofuranoindoles and indenoindoles as novel potassium channel openers” (American Home Products Corporation, priority 1998, dated 2002).

Tests used:
Bladder Tissue = assay: Relaxation of KCl-stimulated isolated rat bladder strips (contractile activity); parameters: species or system Sprague-Dawley rats; details: for IC50: Rattus norvegicus, 0.5 h; for inhibition at 30 µM: rat bladder strips, additional 15 mM KCl, 30 μM test compound, read-out: Bladder Tissue I = Percent inhibition at 30 μM
Procedure: Sprague-Dawley rats (150-200 g) are rendered unconscious by CO2 asphyxiation and then euthanized by cervical dislocation. The bladder is removed into warm (37° C.) physiological salt solution (PSS) of the following composition (mM): NaCl, 118.4; KCl, 4.7; CaCl2, 2.5; […]; NaHCO3, 24.9; KH2PO4, 1.2; glucose, 11.1; EDTA, 0.023; gassed with 95% O2; […]; pH 7.4. The bladder is opened and then cut into strips 1-2 mm in width and 7-10 mm in length. The strips are subsequently suspended in a 10 mL tissue bath under an initial resting tension of 1.5 g. The strips are held in place by two surgical clips one of which is attached to a fixed hook while the other is attached to an isometric force transducer. […] The carbachol is then washed out and the tissue allowed to relax to its resting level of activity. Following a further 30 min period of recovery an additional 15 mM KCl re introduced into the tissue bath. […] Following stabilization of this enhanced level of contractile activity, incremental increases in the concentration of test compound or vehicle are introduced into the tissue bath. Contractile activity is measured for each compound or vehicle concentration during the last minute of a 30 minute challenge.

Aorta Tissue = assay: Relaxation of KCl-contracted isolated rat thoracic aortic rings (contractile force); parameters: species or system Sprague-Dawley rats; details: for IC50: Rattus norvegicus; for Ratio Aorta IC50 / Bladder IC50: aorta IC50 divided by bladder IC50, tissue selectivity
Procedure: The smooth muscle (aorta) relaxing activity of the compounds of this ivention was established in accordance with standard pharmaceutically accepted test procedures with representative compounds as follows.
Male Sprague-Dawley rats (150-200 g) are rendered unconscious by CO2 asphyxiation and then euthanized by cervical dislocation. The thoracic aorta is removed into warm (37° C.) physiological sial solution (PSS) of the following composition (mM): NaCl, 118.4; KCl, 4.7; CaCl2, 2.5; MgSO4.7H2O, 1.2; NaHCO3, 24.9; KH2PO4, 1.2; glucose, 11.1; EDTA, 0.023; gassed with 95% O2/5% CO2; pH 7.4. The aorta is cleaned of fat and loose adventitia and cut into rings 3-4 mm in width. The rings are subsequently suspended between two stainless steel wire tissue holders in a 10 mL tissue bath. One wire tissue holder is attached to a fixed hook while the other is attached to an isometric force transducer. Resting tension is set at 1 g. The tissues are to recover for a period of 60 min prior to beginning the experiment. Tissues are challenged with PSS containing 25 mM KCl to elicit a contracture. The tissues are then washed repeatedly with fresh PSS over a period of 30 min and allowed to recover to baseline tension. PSS containing 30-35 mM KCl is then introduced into the tissue bath to evoke a contracture that is allowed to stabilize for not less than 45 min. (Other stimuli such as norepinephrine, PGF2a, histamine, angiotensin II, endothelin or PSS containing 80 mM KCl may also be used to evoke a contracture as necessary). Increasing concentrations of test compound or vehicle are then added to the tissue bath in a cumulative fashion.
Isometric force development by the aortic rings is measured using a force transducer and recorded on a polygraph. The percentage inhibition of contractile force evoked by each concentration of a given test compound is used to generate a concentration-response curve. […] [Log concentration versus response curves are approximately linear between 20% and 80% of the maximum response. As such, the IC50 concentration of the drug is determined by linear regression analysis (where x=log concentration and y=% inhibition) of the data points in the 20% to 80% region of the curve.] […] Data collected from 2 animals are averaged for primary screens.

whole rat bladder = assay: Relaxation of whole rat bladder ex-vivo (partial outlet obstruction, developed bladder pressure); parameters: species or system Spraque-Dawley rats; details: isolated whole bladder of rats 6 weeks after partial outlet obstruction, 30 minute challenge
Procedure: Several compound in this invention were tested for their ability to relax a whole rat bladder ex-vivo. The protocol for this assay is as follows.
Female Spraque-Dawley rats weighing between 200-300 g were anesthetized with Nembutol® (50 mg/kg, i.p.). After achieving adequate anesthesia, the bladder and urethra were exposed through a mid-line incision. A 4-0 silk ligature was tied around the proximal end of the urethra in the presence of a 1 mm diameter stainless steel rod. The rod was then removed resulting in a partial outlet obstruction. The wound was closed with surgical staples and the animals received 15,000 units of Bicillin® antibiotic. After a 6 week period the animals were asphyxiated with CO2 gas. Bladders for contractile analysis were placed in a physiological salt solution (PSS) at 37° C. of the following composition (in mM): NaCl (118.4), KCl (4.7), CaCl2 (2.5), MgSO4 (1.2), KH2PO4 (1.2), NaHCO3 (24.9) and D-glucose (11.1) gassed with […] to achieve a pH of 7.4.
The isolated bladders were secured through the urethral opening with a silk ligature to a length of polyethylene tubing (PE-200). […]
Following stabilization, incremental increases in the concentration of test compound or vehicle are introduced into the tissue bath. Contractile activity is measured for each compound or vehicle concentration during the last minute of a 30 minute challenge.

| SMILES | IC50 (Bladder Tissue) [µM] | melting point | IC50 (Aorta Tissue) [µM] | Ratio Aorta IC50 / Bladder IC50 (Aorta Tissue) | inhibition at 30 µM (Bladder Tissue) [%] | IC50 (whole rat bladder) [µM] |
| --- | --- | --- | --- | --- | --- | --- |
| O=C(O)c1cccc2c1[nH]c1c3cc(Br)ccc3oc21 [Example 1, 8-Bromo-10H-benzo[4,5]furo[3,2-b]indole-1-carboxylic acid] | 15.1 ± 4.7 | 312 to 313 °C | 119 ± 21.8 | 7.9 | – | – |
| O=C(O)c1cccc2c1[nH]c1c3cc(I)ccc3oc21 [Example 2, 8-Iodo-10H-benzo[4,5]furo[3,2-b]indole-1-carboxylic acid] | 6.1 ± 3 | 297 °C (dec.) | 128 ± 16.9 | 21 | – | – |
| O=C(O)c1cccc2c1[nH]c1c3cc(Cl)ccc3oc21 [Example 3, 8-Chloro-10H-benzo[4,5]furo[3,2-b]indole-1-carboxylic acid] | 5.8 ± 1.5 | 303 °C (dec.) | 268 ± 82.3 | 46.2 | – | – |
| O.O.O=C(O)c1cccc2c1[nH]c1c3cc([N+](=O)[O-])ccc3oc21 [Example 4, 8-Nitro-10H-benzo[4,5]furo[3,2-b]indole-1-carboxylic acid dihydrate] | 6.3 ± 2.6 | – | 125 ± 13.8 | 19.8 | – | – |
| CN(O)C(=O)c1cccc2c1[nH]c1c3cc(Br)ccc3oc21 [Example 8, 8-Bromo-10H-benzo[4,5]furo[3,2-b]indole-1-carboxylic acid hydroxy-methyl amide] | 19.8 ± 4.02 | 174 to 175 °C | 8.1 ± 3.6 | 0.41 | – | – |
| CC(NC(=O)c1cccc2c1[nH]c1c3cc(Br)ccc3oc21)C(C)(C)C (stereo not drawn) [Example 12, 8-Bromo-10H-benzo[4,5]furo[3,2-b]indole-1-carboxylic acid (1,2,2-trimethyl-propyl)-amide] | 13.9 ± 0.95 | 173 to 175 °C | 25 ± 3.9 | 1.8 | – | – |
| O=C(O)c1cccc2c1Cc1c-2[nH]c2ccc(F)cc12 [Example 19, 8-Fluoro-5,10-dihydro-indeno[1,2-b]indole-1-carboxylic acid] | 12.5 ± 5 | > 300 °C | 46.6 ± 18.7 | 3.74 | – | – |
| CCOC(=O)c1cccc2c1Cc1c-2[nH]c2ccc(Cl)cc12 [Example 22, 8-Chloro-5,10-dihydro-indeno[1,2-b]indole-1-carboxylic acid ethyl ester] | – | 202 to 204 °C | – | – | 8 | – |
| CCOC(=O)c1cccc2c1Cc1c-2[nH]c2ccc(Br)cc12 [Example 23, 8-Bromo-5,10-dihydro-indeno[1,2-b]indole-1-carboxylic acid ethyl ester] | – | 198 to 200 °C | – | – | 20 | – |
| CC1(C)c2ccc([N+](=O)[O-])cc2-c2[nH]c3c(C(=O)O)cccc3c21 [Example 24, 10,10-Dimethyl-3-nitro-5,10-dihydro-indeno[1,2-b]indole-6-carboxylic acid] | 5.2 ± 1.8 | 310 °C (dec.) | 17.2 ± 2.3 | 3.3 | – | 5 |
| O=C(O)c1cccc2c1Cc1c-2[nH]c2ccc(Br)cc12 [Example 25, 8-Bromo-5,10-dihydro-indeno[1,2-b]indole-1-carboxylic acid] | 4.4 ± 0.95 | 328 to 330 °C (dec.) | 110 ± 12.4 | 25 | – | – |
| O=C(O)c1cccc2c3c([nH]c12)-c1cc(Br)ccc1C3 [Example 26, 3-Bromo-5,10-dihydro-indeno[1,2-b]indole-6-carboxylic acid] | – | 245 to 247 °C (dec.) | 210 ± 45 | – | – | – |
